Assay results: patent publication US5202324A, “Imidazopyridazines” (Takeda Chemical Industries, Ltd., priority 1989, dated 1993)

Tested on: bronchoconstriction induced by PAF
Test: Effect on bronchoconstriction induced by platelet activating factor (PAF) in guinea pigs (Konzett-Rossler method)
Assay type: in vivo, guinea pig (male Hartley)
Conditions: Cavia porcellus, po, drug 30 mg/kg orally in 5% gum arabic solution 1 hour before PAF (1 μg/kg i.v.), recorded for 15 minutes
Protocol: Effect on Bronchoconstriction Induced by Platelet Activating Factor (PAF) in Guinea Pigs
Male Hartley guinea pigs (body weight 500 g) were used. The bronchoconstriction reaction in the guinea pig which has intravenously received PAF (1 μg/Kg) was measured by the Konzett-Rossler method. The trachea of the guinea pig with its back fixed was incised under anesthesia condition with urethane (intraperitoneal injection, 1.5 g/kg) and connected with an artificial respirator via a cannula. The branch of the tracheal cannula was connected with a transducer (7020 type, Ugobasile). Air was sent to the trachea at the volume of 3-7 ml/stroke, at the rate of 70 strokes/min. at load pressure of 10 cm H2 O to lung and overflowed air volume was recorded with Rectegraph (Recte-Hori-8s, Sanei Sokuki) via the transducer. After the guinea pig was treated with galamine (1 mg/kg, i.v.), PAF (1 μg/kg) dissolved in a physiological saline solution was administered to the guinea pig via a jugular venous cannula and the bronchoconstriction reaction induced thereby was recorded for 15 minutes. The drug (30 mg/kg) suspended in a 5% gum arabic solution was administered orally 1 hour before the injection of PAF.

Structure (SMILES) | inhibition in vivo at 30 mg/kg [%]
CNS(=O)(=O)CCCSc1ccc2nccn2n1 [Example 3] | 41
O=S(=O)(CCCSc1ccc2nccn2n1)NC1CC1 [Example 6] | 47
